Measurements: the supplement of paper PMC11451515

Tests used:
Settings in all cases: 48 h
[1] = tested on: NOMO1; assay: cell viability relative to DMSO control; higher = less cytotoxic
Method in brief: (§1)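 Before seeding, each leukemia line was adapted for at least four passages in each medium. NOMO1 or SEM cells (500 cells/well) and P12-Ichikawa cells (1000 cells/well) went into 1536-well plates at 5 μl, then received library compounds in DMSO by pin dosing across 11 threefold concentrations, 47 μM to 0.79 nM. Readout was CellTiter-Glo One luminescence after 48 h at 37°C, and viability is given as a per-plate percentage of DMSO wells, with cell-free wells as background.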

[2] = tested on: P12-Ichikawa; assay: as above
Method in brief: as §1

[3] = tested on: SEM cells; assay: as above
Method in brief: as §1

[4] = tested on: P12-Ichikawa; assay: AUC of viability dose-response curve (% viability x log10 dose units); higher = less sensitive
Method in brief: (§2)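 Area under the curve was integrated by trapezoidal rule from a log-logistic fit of normalised viability, with curves exceeding full viability scaled and quality-control failures removed. The fit had four parameters over log10 doses. Viability came from CellTiter-Glo One luminescence, normalised per plate to DMSO and cell-free wells, after leukemia cells adapted to each medium (500 or 1000 cells/well, 1536-well plates) were exposed to library compounds in DMSO for 48 h at 37°C. The 11 threefold doses ran from 47 μM to 0.79 nM.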

[5] = tested on: SEM cells; assay: as above
Method in brief: as §2

[6] = tested on: NOMO1; assay: as above
Method in brief: as §2

COc1cc(N2CCC(N3CCN(C)CC3)CC2)ccc1Nc1ncnc(Nc2ccccc2[S+](=O)([O-])C(C)C)n1
cell viability [%]
Settings | [1] | [2] | [3]
HPLM + 10% dialyzed FBS, 0.000781 µM | 92.5 | 113 | 69.6
HPLM + 10% dialyzed FBS, 0.00234 µM | 92.9 | 117 | 81.5
HPLM + 10% dialyzed FBS, 0.00702 µM | 95.9 | 120 | 85.8
HPLM + 10% dialyzed FBS, 0.0211 µM | 111 | 125 | 99.3
HPLM + 10% dialyzed FBS, 0.0632 µM | 65 | 97.9 | 67.4
HPLM + 10% dialyzed FBS, 0.19 µM | 123 | 128 | 106
HPLM + 10% dialyzed FBS, 0.569 µM | 144 | 122 | 104
HPLM + 10% dialyzed FBS, 1.71 µM | 117 | 117 | 88.4
HPLM + 10% dialyzed FBS, 5.12 µM | 102 | 115 | 67.6
HPLM + 10% dialyzed FBS, 15.4 µM | 54.4 | 90.1 | 25.2
HPLM + 10% dialyzed FBS, 46.1 µM | 31 | 28.4 | 11.9
RPMI 5 mM glucose + 10% FBS, 0.000781 µM | 110 | 97.4 | 71.3
RPMI 5 mM glucose + 10% FBS, 0.00234 µM | 103 | 90.7 | 72.6
RPMI 5 mM glucose + 10% FBS, 0.00702 µM | 113 | 100 | 90.7
RPMI 5 mM glucose + 10% FBS, 0.0211 µM | 119 | 110 | 93.8
RPMI 5 mM glucose + 10% FBS, 0.0632 µM | 88 | 74.5 | 59.6
RPMI 5 mM glucose + 10% FBS, 0.19 µM | 117 | 112 | 123
RPMI 5 mM glucose + 10% FBS, 0.569 µM | 115 | 106 | 109
RPMI 5 mM glucose + 10% FBS, 1.71 µM | 108 | 103 | 81
RPMI 5 mM glucose + 10% FBS, 5.12 µM | 110 | 103 | 59.4
RPMI 5 mM glucose + 10% FBS, 15.4 µM | 62.5 | 91.2 | 22.5
RPMI 5 mM glucose + 10% FBS, 46.1 µM | 43.2 | 44.9 | 7.39
RPMI 5 mM glucose + 10% dialyzed FBS, 0.000781 µM | 87.6 | 112 | 87.4
RPMI 5 mM glucose + 10% dialyzed FBS, 0.00234 µM | 87.7 | 97 | 90.2
RPMI 5 mM glucose + 10% dialyzed FBS, 0.00702 µM | 91.9 | 118 | 82.2
RPMI 5 mM glucose + 10% dialyzed FBS, 0.0211 µM | 89.3 | 119 | 85.7
RPMI 5 mM glucose + 10% dialyzed FBS, 0.0632 µM | 69.1 | 84 | 69.8
RPMI 5 mM glucose + 10% dialyzed FBS, 0.19 µM | 107 | 125 | 132
RPMI 5 mM glucose + 10% dialyzed FBS, 0.569 µM | 123 | 120 | 127
RPMI 5 mM glucose + 10% dialyzed FBS, 1.71 µM | 114 | 119 | 109
RPMI 5 mM glucose + 10% dialyzed FBS, 5.12 µM | 109 | 114 | 72.7
RPMI 5 mM glucose + 10% dialyzed FBS, 15.4 µM | 58.3 | 83.4 | 26.4
RPMI 5 mM glucose + 10% dialyzed FBS, 46.1 µM | 34.5 | 47.3 | 12.9

AUC of viability dose-response curve
Settings | HPLM + 10% dialyzed FBS | RPMI 5 mM glucose + 10% FBS | RPMI 5 mM glucose + 10% dialyzed FBS
[4] | 447 | 458 | 451
[5] | 361 | 354 | 400

CN[C@@H]1CN(C[C@H]1OC)C2=NC3=C(C=C2)C(=O)C(=C\N3C4=NC=CS4)/C(O)=O
AUC of viability dose-response curve
Settings | [4] | [5] | [6]
HPLM + 10% dialyzed FBS | 426 | 396 | 454
RPMI 5 mM glucose + 10% FBS | 386 | 347 | 455
RPMI 5 mM glucose + 10% dialyzed FBS | 389 | 363 | 451

C/C=C(/C(=C/C)c1ccc(O)cc1)c1ccc(O)cc1
AUC of viability dose-response curve
Settings | [4] | [5] | [6]
HPLM + 10% dialyzed FBS | 469 | 464 | 464
RPMI 5 mM glucose + 10% FBS | 465 | 467 | 431
RPMI 5 mM glucose + 10% dialyzed FBS | 465 | 465 | 457

C[C@@H]1O[C@@H](O[C@H]\2CC[C@]\3(C)[C@@H]4CC[C@]5(C)[C@@H](CC[C@@]5(O)[C@H]4CCC3=C2)C/6=C/OC(=O)/C=C6)[C@H](O)[C@H](O)[C@@H]1O
[3], HPLM + 10% dialyzed FBS
Settings | cell viability [%]
0.000781 µM | 124
0.00234 µM | 121
0.00702 µM | 109
0.0211 µM | 79.3
0.0632 µM | 11.6
0.19 µM | 12.5
0.569 µM | 9.21
1.71 µM | 8.61
5.12 µM | 8.87
15.4 µM | 7.79
46.1 µM | 4.4

AUC of viability dose-response curve
Settings | [4] | [5] | [6]
HPLM + 10% dialyzed FBS | 181 | 173 | 187
RPMI 5 mM glucose + 10% FBS | 197 | 193 | 214
RPMI 5 mM glucose + 10% dialyzed FBS | 173 | 186 | 193

CCN(CC)CCOC1=CC=C(NC2=NC=C3\C=C(/C(=O)N(C)C3=N2)C4=C(Cl)C=CC=C4Cl)C=C1
cell viability [%]
Settings | [1] | [2] | [3]
HPLM + 10% dialyzed FBS, 0.000781 µM | 116 | 107 | 94.9
HPLM + 10% dialyzed FBS, 0.00234 µM | 138 | 114 | 101
HPLM + 10% dialyzed FBS, 0.00702 µM | 121 | 109 | 105
HPLM + 10% dialyzed FBS, 0.0211 µM | 115 | 84.8 | 74.5
HPLM + 10% dialyzed FBS, 0.0632 µM | 108 | 111 | 67.9
HPLM + 10% dialyzed FBS, 0.19 µM | 96.4 | 96.5 | 58.4
HPLM + 10% dialyzed FBS, 0.569 µM | 97.5 | 99.6 | 56.8
HPLM + 10% dialyzed FBS, 1.71 µM | 80.5 | 109 | 56
HPLM + 10% dialyzed FBS, 5.12 µM | 16.1 | 21.8 | 10.9
HPLM + 10% dialyzed FBS, 15.4 µM | 10.1 | 5.01 | 6.61
HPLM + 10% dialyzed FBS, 46.1 µM | 2.65 | 4.01 | 4.15
RPMI 5 mM glucose + 10% FBS, 0.000781 µM | – | 122 | 78.3
RPMI 5 mM glucose + 10% FBS, 0.00234 µM | – | 120 | 67.6
RPMI 5 mM glucose + 10% FBS, 0.00702 µM | – | 118 | 74.7
RPMI 5 mM glucose + 10% FBS, 0.0211 µM | – | 85.2 | 52.1
RPMI 5 mM glucose + 10% FBS, 0.0632 µM | – | 109 | 48.6
RPMI 5 mM glucose + 10% FBS, 0.19 µM | – | 101 | 44.8
RPMI 5 mM glucose + 10% FBS, 0.569 µM | – | 113 | 38.2
RPMI 5 mM glucose + 10% FBS, 1.71 µM | – | 106 | 45.8
RPMI 5 mM glucose + 10% FBS, 5.12 µM | – | 13.3 | 11.7
RPMI 5 mM glucose + 10% FBS, 15.4 µM | – | 4.01 | 7.2
RPMI 5 mM glucose + 10% FBS, 46.1 µM | – | 6.43 | 2.88
RPMI 5 mM glucose + 10% dialyzed FBS, 0.000781 µM | – | 118 | 92.5
RPMI 5 mM glucose + 10% dialyzed FBS, 0.00234 µM | – | 124 | 102
RPMI 5 mM glucose + 10% dialyzed FBS, 0.00702 µM | – | 122 | 106
RPMI 5 mM glucose + 10% dialyzed FBS, 0.0211 µM | – | 94.6 | 68.3
RPMI 5 mM glucose + 10% dialyzed FBS, 0.0632 µM | – | 109 | 76.1
RPMI 5 mM glucose + 10% dialyzed FBS, 0.19 µM | – | 96.9 | 69.1
RPMI 5 mM glucose + 10% dialyzed FBS, 0.569 µM | – | 111 | 61.1
RPMI 5 mM glucose + 10% dialyzed FBS, 1.71 µM | – | 113 | 59.8
RPMI 5 mM glucose + 10% dialyzed FBS, 5.12 µM | – | 12.1 | 13.5
RPMI 5 mM glucose + 10% dialyzed FBS, 15.4 µM | – | 4.8 | 8.59
RPMI 5 mM glucose + 10% dialyzed FBS, 46.1 µM | – | 6.66 | 3.75

AUC of viability dose-response curve
Settings | HPLM + 10% dialyzed FBS | RPMI 5 mM glucose + 10% FBS | RPMI 5 mM glucose + 10% dialyzed FBS
[4] | 371 | 365 | 367
[6] | 343 | 359 | 355
